Values of other authors in patent US20200245666A1, “CANNABINOID EMULSIONS, BEVERAGES AND FOODS” (Lighthouse Strategies, LLC, priority 2019, published 2020).

Conditions: smoking a 3.55% THC cigarette

CCCCCc1cc(O)c2c(c1)OC(C)(C)[C@@H]1CCC(C)=C[C@@H]21 [THC, Δ9-tetrahydrocannabinol]
peak plasma level: 152 ± 86.3 ng/mL | time of peak plasma level after inhalation: approximately 10 minutes
